pIC50: −log10 of the molar value.

The pIC50 is the negative decadic logarithm of the IC50, by convention in mol/L.

For this test, the target named is PI3Kβ (Homo sapiens (Human), UniProt P42338). Kind of test: PI3K isoform TR-FRET enzymatic assay (PI3Kβ). To be noted: 2× Km ATP, 30 minutes at 25° C. Type of test: biochemical. An outline of the steps:
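IC50 came from four-parameter dose-response fits, normalized between DMSO and 1 μM wortmannin controls. The read-out was TR-FRET (615/665 nm) of PIP3 displacing fluorescent PIP3 from Europium GRP-1 after 10 mM EDTA termination. Compounds were incubated with purified heterodimeric PI3Kβ for 30 min at 25° C.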
(Time-resolved FRET reads energy transfer from a long-lived donor to a nearby acceptor.)

PI3Kβ, sequence (P42338 whole entry, canonical isoform): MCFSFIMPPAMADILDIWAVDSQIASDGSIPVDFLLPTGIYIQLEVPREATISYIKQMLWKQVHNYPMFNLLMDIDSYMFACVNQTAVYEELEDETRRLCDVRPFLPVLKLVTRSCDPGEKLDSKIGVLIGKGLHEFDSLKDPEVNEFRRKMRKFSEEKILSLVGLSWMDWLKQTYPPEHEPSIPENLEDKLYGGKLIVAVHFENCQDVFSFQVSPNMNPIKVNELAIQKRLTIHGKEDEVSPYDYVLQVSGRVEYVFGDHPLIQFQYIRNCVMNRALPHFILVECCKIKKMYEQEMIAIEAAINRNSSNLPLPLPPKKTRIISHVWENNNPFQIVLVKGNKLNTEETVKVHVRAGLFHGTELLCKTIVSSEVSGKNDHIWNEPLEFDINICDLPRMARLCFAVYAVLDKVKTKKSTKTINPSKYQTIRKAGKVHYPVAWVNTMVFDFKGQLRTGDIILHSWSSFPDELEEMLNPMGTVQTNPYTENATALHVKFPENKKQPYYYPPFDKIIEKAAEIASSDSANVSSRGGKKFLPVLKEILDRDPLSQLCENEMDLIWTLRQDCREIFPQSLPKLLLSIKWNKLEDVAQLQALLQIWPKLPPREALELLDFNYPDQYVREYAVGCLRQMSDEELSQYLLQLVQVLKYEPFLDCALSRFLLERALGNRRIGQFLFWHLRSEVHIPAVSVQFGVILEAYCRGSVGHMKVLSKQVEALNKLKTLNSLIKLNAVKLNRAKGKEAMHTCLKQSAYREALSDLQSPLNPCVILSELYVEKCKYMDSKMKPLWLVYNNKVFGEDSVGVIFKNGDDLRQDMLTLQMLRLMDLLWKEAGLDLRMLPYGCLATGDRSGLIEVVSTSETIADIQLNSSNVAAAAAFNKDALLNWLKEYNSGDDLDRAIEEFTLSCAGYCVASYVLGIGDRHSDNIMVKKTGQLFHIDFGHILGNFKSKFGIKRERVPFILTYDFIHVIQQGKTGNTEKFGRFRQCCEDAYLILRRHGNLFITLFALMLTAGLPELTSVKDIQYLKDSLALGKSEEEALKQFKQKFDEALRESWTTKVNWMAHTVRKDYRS
PI3Kβ, sequence (P27986 whole entry partner, canonical isoform): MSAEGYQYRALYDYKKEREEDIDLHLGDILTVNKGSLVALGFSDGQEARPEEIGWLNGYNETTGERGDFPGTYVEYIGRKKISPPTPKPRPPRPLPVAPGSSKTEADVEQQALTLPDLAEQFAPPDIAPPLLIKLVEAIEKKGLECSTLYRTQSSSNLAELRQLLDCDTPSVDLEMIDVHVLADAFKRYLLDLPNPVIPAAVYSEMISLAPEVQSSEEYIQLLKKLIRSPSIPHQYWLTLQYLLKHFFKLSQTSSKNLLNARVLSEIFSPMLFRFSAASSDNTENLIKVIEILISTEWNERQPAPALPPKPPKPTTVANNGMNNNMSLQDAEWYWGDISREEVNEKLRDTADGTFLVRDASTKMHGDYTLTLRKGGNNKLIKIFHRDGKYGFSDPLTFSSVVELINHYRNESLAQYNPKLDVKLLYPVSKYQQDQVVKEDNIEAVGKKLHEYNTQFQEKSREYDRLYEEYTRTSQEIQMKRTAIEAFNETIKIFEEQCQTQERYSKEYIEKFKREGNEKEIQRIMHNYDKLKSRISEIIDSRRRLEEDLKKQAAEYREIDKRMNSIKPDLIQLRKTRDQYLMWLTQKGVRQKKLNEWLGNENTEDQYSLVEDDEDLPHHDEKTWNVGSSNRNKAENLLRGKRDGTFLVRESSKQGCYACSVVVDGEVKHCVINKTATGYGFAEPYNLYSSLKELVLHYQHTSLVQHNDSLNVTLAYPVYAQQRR

For `CCCc1nc2c(-c3nnc(C)[nH]3)cc(N3CCOCC3)cc2n1-c1ccnc2c(C)ccc(F)c12` [Example 43, 4-(1-(5-fluoro-8-methylquinolin-4-yl)-4-(5-methyl-4H-1,2,4-triazol-3-yl)-2-propyl-1H-benzo[d]imidazol-6-yl)morpholine], the pIC50 is 7.70.
The result for `CCc1nc2c(-c3cnc(Cl)[nH]3)cc(N3CCOCC3)cc2n1-c1ccnc2c(F)ccc(Cl)c12` [Example 310, 4-[3-(5-chloro-8-fluoroquinolin-4-yl)-7-(2-chloro-1H-imidazol-5-yl)-2-ethylbenzimidazol-5-yl]morpholine] reads 7.44; that for `CCCc1nc2c(-c3cn[nH]c3)cc(N3CCOCC3)cc2n1-c1ccnc2c(F)ccc(F)c12` [Example 388, 4-(1-(5,8-difluoroquinolin-4-yl)-2-propyl-4-(1H-pyrazol-4-yl)-1H-benzo[d]imidazol-6-yl)morpholine], 5.96.
The result for `Cc1cc(-c2cc(N3CCOCC3)cc3c2nc(C)n3-c2ccnc3c(Cl)cccc23)n[nH]1` [Example 268, 4-[3-(8-chloroquinolin-4-yl)-2-methyl-7-(5-methyl-1H-pyrazol-3-yl)benzimidazol-5-yl]morpholine] reads 6.50.
`Fc1ccc(F)c2c(-n3c(C4CC4)nc4c(-c5nnc(Cl)[nH]5)cc(N5CCOCC5)cc43)ccnc12` [Example 181, 4-[7-(5-chloro-4H-1,2,4-triazol-3-yl)-2-cyclopropyl-3-(5,8-difluoroquinolin-4-yl)benzimidazol-5-yl]morpholine] gave a pIC50 of 6.68.
The result for `Cc1nc2c(-c3cccnc3)cc(N3CCOCC3)cc2n1-c1ccnc2c(-c3cccnc3)cccc12` [Example 318, 4-[2-methyl-7-pyridin-3-yl-3-(8-pyridin-3-ylquinolin-4-yl)benzimidazol-5-yl]morpholine] reads 5.28; that for `Cc1nc2c(-c3nnc[nH]3)cc(N3CCOCC3)cc2n1-c1ccnc2ccccc12` [Example 106, 4-[2-methyl-3-quinolin-4-yl-7-(4H-1,2,4-triazol-3-yl)benzimidazol-5-yl]morpholine], 7.77; that for `CCc1c(C)nc2ccccc2c1-n1cnc2c(-c3nc(C)n[nH]3)cc(N3CCOCC3)cc21` [Example 75, 4-[3-(3-ethyl-2-methylquinolin-4-yl)-7-(3-methyl-1H-1,2,4-triazol-5-yl)benzimidazol-5-yl]morpholine], 7.54.
As to `CCc1nc2c(-c3ncco3)cc(N3CCOCC3)cc2n1-c1ccnc2c(Cl)cccc12` [Example 226, 4-[3-(8-chloroquinolin4-yl)-2-ethyl-7-(1,3-oxazol-2-yl)benzimidazol-5-yl]morpholine], the pIC50 was 8.30.
In turn, `CCCc1nc2c(-c3nnc(C)[nH]3)cc(N3CCOCC3)cc2n1-c1ccnc2c(F)ccc(F)c12` [Example 3, 4-(1-(5,8-difluoroquinolin-4-yl)-4-(5-methyl-4H-1,2,4-triazol-3-yl)-2-propyl-1H-benzo[d]imidazol-6-yl)morpholine] showed a negative-log IC50 (pIC50) of 7.62.
For the compound `CCCc1nc2c(-c3nnc[nH]3)cc(N3CCOCC3)cc2n1-c1ccnc2c(F)c(F)ccc12` [Example 49, 4-(1-(7,8-difluoroquinolin-4-yl)-2-propyl-4-(4H-1,2,4-triazol-3-yl)-1H-benzo[d]imidazol-6-yl)morpholine], the negative-log IC50 (pIC50) was 7.74.
The result for `CCc1nc2c(-c3cnc(Cl)[nH]3)cc(N3CCOCC3)cc2n1-c1ccnc2c(Cl)c(F)ccc12` [Example 295, 4-[3-(8-chloro-7-fluoroquinolin-4-yl)-7-(2-chloro-1H-imidazol-5-yl)-2-ethylbenzimidazol-5-yl]morpholine] reads 7.92; that for `CCCc1nc2c(-c3nnc[nH]3)cc(N3CCOCC3)cc2n1-c1ccnc2c(C)ccc(F)c12` [Example 37, 4-(1-(5-fluoro-8-methylquinolin-4-yl)-2-propyl-4-(4H-1,2,4-triazol-3-yl)-1H-benzo[d]imidazol-6-yl)morpholine], 7.96; that for `Cc1csc(-c2cc(N3CCOCC3)cc3c2nc(C2CC2)n3-c2ccnc3c(F)ccc(F)c23)n1` [Example 237, 4-[2-cyclopropyl-3-(5,8-difluoroquinolin-4-yl)-7-(4-methyl-1,3-thiazol-2-yl)benzimidazol-5-yl]morpholine], 7.30.
For `Cc1nc2c(-c3n[nH]c(=O)o3)cc(N3CCOCC3)cc2n1-c1ccnc2cc(F)ccc12` [Example 166, 5-(1-(7-fluoroquinolin-4-yl)-2-methyl-6-morpholino-1H-benzo[d]imidazol-4-yl)-1,3,4-oxadiazol-2(3H)-one], the pIC50 is 6.32.
In turn, `Cc1nc2c(-c3nnc[nH]3)cc(N3CCOCC3)cc2n1-c1ccnc2c(F)cc(F)cc12` [Example 145, 4-[3-(6,8-difluoroquinolin-4-yl)-2-methyl-7-(4H-1,2,4-triazol-3-yl)benzimidazol-5-yl]morpholine] had a pIC50 of 7.25.
In turn, `CCc1nc2ccccc2c(-n2c(C)nc3c(-c4nc(C)n[nH]4)cc(N4CCOCC4)cc32)c1C` [Example 76, 4-[3-(2-ethyl-3-methylquinolin-4-yl)-2-methyl-7-(3-methyl-1H-1,2,4-triazol-5-yl)benzimidazol-5-yl]morpholine] gave a pIC50 of 7.54.
The result for `Cc1cccc2nccc(-n3c(C)nc4c(-c5nnc[nH]5)cc(N5CCOCC5)cc43)c12` (atropisomer, axis not shown) [Compound 362, 4-[2-methyl-3-(5-methylquinolin-4-yl)-7-(4H-1,2,4-triazol-3-yl)benzimidazol-5-yl]morpholine] reads 7.55; that for `CCCc1nc2c(-c3cnc(Cl)[nH]3)cc(N3CCOCC3)cc2n1-c1ccnc2c(Cl)cc(F)cc12` [Example 303, 4-[3-(8-chloro-6-fluoroquinolin-4-yl)-7-(2-chloro-1H-imidazol-5-yl)-2-propylbenzimidazol-5-yl]morpholine], 7.68; that for `CCc1nc2c(-c3nnc(C)[nH]3)cc(N3CCOCC3)cc2n1-c1ccnc2c(F)ccc(F)c12` [Example 152, 4-(1-(5,8-difluoroquinolin-4-yl)-2-ethyl-4-(5-methyl-4H-1,2,4-triazol-3-yl)-1H-benzo[d]imidazol-6-yl)morpholine], 7.23.
`Cc1nc2c(-c3cnc(Cl)[nH]3)cc(N3CCOCC3)cc2n1-c1ccnc2c(F)ccc(Cl)c12` [Example 309, 4-[3-(5-chloro-8-fluoroquinolin-4-yl)-7-(2-chloro-1H-imidazol-5-yl)-2-methylbenzimidazol-5-yl]morpholine] gave a negative logarithm of the IC50 (pIC50) of 7.30.
The result for `Fc1ccc(Cl)c2nccc(-n3c(C4CC4)nc4c(-c5cnc(Cl)[nH]5)cc(N5CCOCC5)cc43)c12` [Example 307, 4-[3-(8-chloro-5-fluoroquinolin-4-yl)-7-(2-chloro-1H-imidazol-5-yl)-2-cyclopropylbenzimidazol-5-yl]morpholine] reads 8.10.
The result for `CCc1nc2c(-c3nnc(C)[nH]3)cc(N3CCOCC3)cc2n1-c1c(Cl)cnc2c(Cl)cccc12` [Example 26, 4-[3-(3,8-dichloroquinolin-4-yl)-2-ethyl-7-(5-methyl-4H-1,2,4-triazol-3-yl)benzimidazol-5-yl]morpholine] reads 7.66.
The result for `Cc1nnc(-c2cc(N3CCOCC3)cc3c2ncn3-c2ccnc3cc(F)ccc23)[nH]1` [Example 22, 4-(1-(7-fluoroquinolin-4-yl)-4-(5-methyl-4H-1,2,4-triazol-3-yl)-1H-benzo[d]imidazol-6-yl)morpholine] reads 6.55.
`CCCc1nc2c(-c3nnc[nH]3)cc(N3CCOCC3)cc2n1-c1ccnc2c(F)cccc12` [Example 141, 4-[3-(8-fluoroquinolin-4-yl)-2-propyl-7-(4H-1,2,4-triazol-3-yl)benzimidazol-5-yl]morpholine] had a pIC50 of 8.00.
The result for `Cc1ccc(F)c2c(-n3c(C)nc4c(-c5nnc[nH]5)cc(N5CCOCC5)cc43)ccnc12` [Example 124, 4-[3-(5-fluoro-8-methylquinolin-4-yl)-2-methyl-7-(4H-1,2,4-triazol-3-yl)benzimidazol-5-yl]morpholine] reads 8.05; that for `Cc1nnc(-c2cc(N3CCOCC3)cc3c2nc(C)n3-c2ccnc3c(Cl)ccc(Cl)c23)[nH]1` [Example 151, 4-(1-(5,8-dichloroquinolin-4-yl)-2-methyl-4-(5-methyl-4H-1,2,4-triazol-3-yl)-1H-benzo[d]imidazol-6-yl)morpholine], 7.36.
The result for `Cc1nc2c(-c3cn(C)cn3)cc(N3CCOCC3)cc2n1-c1ccnc2c(Cl)cccc12` [Example 203, 4-[3-(8-chloroquinolin-4-yl)-2-methyl-7-(1-methylimidazol-4-yl)benzimidazol-5-yl]morpholine] reads 6.92; that for `COC(C)c1nc2c(-c3nnc[nH]3)cc(N3CCOCC3)cc2n1-c1ccnc2c(Cl)cccc12` (centres unmarked) [Example 12, 4-(1-(8-chloroquinolin-4-yl)-2-(1-methoxyethyl)-4-(4H-1,2,4-triazol-3-yl)-1H-benzo[d]imidazol-6-yl)morpholine], 7.37; that for `CCCc1nc2c(-c3cnc(C)[nH]3)cc(N3CCOCC3)cc2n1-c1ccnc2c(Cl)cccc12` [Example 212, 4-[3-(8-chloroquinolin-4-yl)-7-(2-methyl-1H-imidazol-5-yl)-2-propylbenzimidazol-5-yl]morpholine], 7.47.
The compound `Cc1nc2c(-c3nnc[nH]3)cc(N3CCOCC3)cc2n1-c1cc(C(F)(F)F)nc2c(Cl)cccc12` [Example 58, 4-[3-[8-chloro-2-(trifluoromethyl)quinolin-4-yl]-2-methyl-7-(4H-1,2,4-triazol-3-yl)benzimidazol-5-yl]morpholine] had a pIC50 of 7.21.
`Fc1ccc2c(-n3c(C4CC4)nc4c(-c5nnc(Cl)[nH]5)cc(N5CCOCC5)cc43)ccnc2c1Cl` [Example 173, 4-(4-(5-chloro-4H-1,2,4-triazol-3-yl)-1-(8-chloro-7-fluoroquinolin-4-yl)-2-cyclopropyl-1H-benzo[d]imidazol-6-yl)morpholine]: the pIC50 is 6.85.

(Values after patent US10214519B2, “Phosphatidylinositol 3-kinase inhibitors” (Gilead Sciences, Inc., priority 2016, dated 2019).)
